# Entries after “also recorded” stand apart in the source; their conditions may differ. Read-outs that look alike come from different tables or passages of the source. Marks after values point to notes of the source that are not given here.
# Columns and labels:
# ERK1 and 2 = assay: Active phospho-MAPK immunoblot in MALME-3M cells; assay type: cell-based, human
# Experimental: (§1) Western blot analysis was performed as described previously (Koo et al., 1999, supra). The primary antibodies used were anti-active MAPK from Promega, and anti-ERK1 (K-23) and anti-ERK2 (C-14) from Santa Cruz Biotechnology.
# SK-MEL-2 [1] = assay type: cell-based, human; details: 72 h, average of four replicates minus background (PA alone or DMSO), LF 0.1 μg/ml with PA, PD98059 20 μM every 24 h, U0126 10 μM single dose
# M14-MEL = assay type: cell-based, human; details: for % Apoptosis: M14-MEL Melanoma Cells, treatment for 72 hours; for Apoptosis (%) Experiment I: M14-MEL, 72 h, average of four replicates minus background (PA alone or DMSO), LF 0.1 μg/ml with PA, PD98059 20 μM every 24 h, U0126 10 μM single dose
# [2] = system: normal human melanocytes (NHEM); assay: Cell cycle profile by flow cytometry; assay type: cell-based; details: 72 hours with PD98059 (and U0126) or 96 hours with LF
# Experimental: (§2) Cell cycle profiles and DNA content were analyzed by flow cytometry, as previously described (Koo, H.-M. et al. Canc Res 59:6057-6062 (1999)). Total cells including floating cells were harvested, washed in cold PBS and fixed in cold 70% ethanol overnight. The fixed cells were rehydrated in PBS containing 1% fetal bovine serum, washed in PBS, incubated with DNase-free RNase at room temperature for 30 min, and then stained with 50 μg/ml propidium iodide overnight at 4° C. in the dark. The stained samples were analyzed in a FACSCalibur (Becton Dickinson Biosciences) for DNA content and cell cycle profiles.
# UACC-62 [3] = assay type: cell-based, human; details: 72 h, average of four replicates minus background (PA alone or DMSO), LF 0.1 μg/ml with PA, PD98059 20 μM every 24 h, U0126 10 μM single dose
# [4] = system: normal human melanocytes (NHEM); assay type: cell-based; details: for % Apoptosis: Normal Melanocytes, treatment for 72 hours; for apoptosis (in words): normal melanocytes
# MAPK (ERK) = assay: Active phospho-MAPK immunoblot in normal melanocytes; assay type: cell-based, human; details: 72 hours with PD98059 (and U0126) or 96 hours with LF
# Experimental: as §1
# MALME-3M [5] = assay: Cell cycle profile by flow cytometry; assay type: cell-based, human; details: within 24 hours of treatment
# Experimental: as §2
# In most cell types, activation of the MAPK pathway is required for progression through the restriction point in G1 phase of the cell cycle (reviewed in Roussel et al., supra).
# UACC-257 [6] = assay type: cell-based, human; details: 72 h, average of four replicates minus background (PA alone or DMSO), LF 0.1 μg/ml with PA, PD98059 20 μM every 24 h, U0126 10 μM single dose
# MDA-MB-435 and MDA-N = assay: NCI-ADS growth inhibition, breast carcinoma lines; assay type: cell-based, human; details: NCI-ADS breast carcinoma lines MDA-MB-435 and MDA-N
# SK-MEL-28 = assay type: cell-based, human; details: 72 h, average of four replicates minus background (PA alone or DMSO), LF 0.1 μg/ml with PA, PD98059 20 μM every 24 h, U0126 10 μM single dose
# LOX-IMVI [7] = assay type: cell-based, human; details: 72 h, average of four replicates minus background (PA alone or DMSO), LF 0.1 μg/ml with PA, PD98059 20 μM every 24 h, U0126 10 μM single dose
# SK-MEL-5 [8] = assay type: cell-based, human; details: 72 h, average of four replicates minus background (PA alone or DMSO), LF 0.1 μg/ml with PA, PD98059 20 μM every 24 h, U0126 10 μM single dose
# MALME-3M [9] = assay type: cell-based, human; details: 72 h, average of four replicates minus background (PA alone or DMSO), LF 0.1 μg/ml with PA, PD98059 20 μM every 24 h, U0126 10 μM single dose
# UACC-257 [10] = details: mouse, in vivo, ip, 90 mg/kg/day; cited from earlier work
# M14 = details: mouse, in vivo, ip, 90 mg/kg/day; cited from earlier work
# MALME-3M [11] = details: mouse, in vivo, ip, 90 mg/kg/day; cited from earlier work
# UACC-62 [12] = details: mouse, in vivo, ip, 90 mg/kg/day; cited from earlier work
# melanoma xenografts = details: mouse, in vivo, ip; cited from earlier work
# SK-MEL-5 [13] = details: mouse, in vivo, ip, 40 mg/kg/day; cited from earlier work
# LOX-IMVI [14] = details: mouse, in vivo, ip, cited from earlier work
# SK-MEL-2 [15] = details: mouse, in vivo, ip, 90 mg/kg/day; cited from earlier work
# MAPK (ERK1/2) = assay: Western blot with phospho-specific anti-ERK antibody in M14-MEL cells; assay type: cell-based, human; details: M14-MEL melanoma cells
# Experimental: as §1
# [16] = 72 hours with PD98059 (and U0126) or 96 hours with LF
smiles,measurement,setting,value
COc1cccc(-c2cc(=O)c3ccccc3o2)c1N [PD98059],activation of ERK1 and 2,ERK1 and 2,inhibited
same,Apoptosis (%) Experiment I,SK-MEL-2 [1],23.4%
same,% Apoptosis,M14-MEL; 20 μM,38.9%
same,Apoptosis (%) Experiment I,M14-MEL,53.0%
same,cell cycle response,[2],induced G1 arrest
same,Apoptosis (%) Experiment I,UACC-62 [3],30.5%
same,% Apoptosis,[4]; 20 μM,0%
same,apoptosis (in words),[4]; [16],no apoptosis was observed
same,apoptosis (in words),[4]; PD98059 for 96 hours,apoptosis was not detected
same,MAPK (ERK) activation,MAPK (ERK),inhibited
same,cell cycle progression,MALME-3M [5],noticeably blocked in the G1 phase
same,Apoptosis (%) Experiment I,UACC-257 [6],19.7%
same,sensitivity to growth inhibition,MDA-MB-435 and MDA-N,as sensitive as melanoma cell lines
same,Apoptosis (%) Experiment I,SK-MEL-28,2.5%
same,Apoptosis (%) Experiment I,LOX-IMVI [7],3.6%
same,Apoptosis (%) Experiment I,SK-MEL-5 [8],9.1%
same,Apoptosis (%) Experiment I,MALME-3M [9],47.9%
N#CC(=C(/N)Sc1ccccc1N)/C(C#N)=C(\N)Sc1ccccc1N [U0126],Apoptosis (%) Experiment I,SK-MEL-2 [1],35.4%
same,Apoptosis (%) Experiment I,M14-MEL,36.0%
same,cell cycle response,[2],induced G1 arrest
same,Apoptosis (%) Experiment I,UACC-62 [3],8.3%
same,apoptosis (in words),[4]; [16],no apoptosis was observed; also recorded: did not induce apoptosis
same,MAPK (ERK) activation,MAPK (ERK),inhibited
same,Apoptosis (%) Experiment I,UACC-257 [6],4.7%
same,Apoptosis (%) Experiment I,SK-MEL-28,1.1%
same,Apoptosis (%) Experiment I,LOX-IMVI [7],2.3%
same,Apoptosis (%) Experiment I,SK-MEL-5 [8],1.9%
same,Apoptosis (%) Experiment I,MALME-3M [9],48.3%
COc1cccc2c1[C@H](CO)N1[C@@H](C#N)[C@@H]3C[C@@H](C(=O)O)[C@H]([C@@H]1C2)N3C [DX-52-1],Growth delay: %(T − C)/C,UACC-257 [10],35%
same,Optimal % T/C,UACC-257 [10],12 (27) %
same,Regressions Complete,UACC-257 [10],0/6
same,Regressions Partial,UACC-257 [10],0/6
same,day on which the optimal (minimum) T/C was attained,UACC-257 [10],12 (27)
same,Growth delay: %(T − C)/C,M14,56%
same,Optimal % T/C,M14,19 (26) %
same,Regressions Complete,M14,0/6
same,Regressions Partial,M14,0/6
same,day on which the optimal (minimum) T/C was attained,M14,19 (26)
same,Growth delay: %(T − C)/C,MALME-3M [11],4%
same,Optimal % T/C,MALME-3M [11],64 (72) %
same,Regressions Complete,MALME-3M [11],0/6
same,Regressions Partial,MALME-3M [11],0/6
same,day on which the optimal (minimum) T/C was attained,MALME-3M [11],64 (72)
same,Growth delay: %(T − C)/C,UACC-62 [12],185%
same,Optimal % T/C,UACC-62 [12],18 (34) %
same,Regressions Complete,UACC-62 [12],0/7
same,Regressions Partial,UACC-62 [12],0/7
same,day on which the optimal (minimum) T/C was attained,UACC-62 [12],18 (34)
same,melanoma xenografts with statistically significant antitumor activity,melanoma xenografts,5/7
same,Growth delay: %(T − C)/C,SK-MEL-5 [13],27%
same,Optimal % T/C,SK-MEL-5 [13],49 (33) %
same,Regressions Complete,SK-MEL-5 [13],0/6
same,Regressions Partial,SK-MEL-5 [13],0/6
same,day on which the optimal (minimum) T/C was attained,SK-MEL-5 [13],49 (33)
same,Growth delay: %(T − C)/C,LOX-IMVI [14]; 60 mg/kg/day,389%
same,Optimal % T/C,LOX-IMVI [14]; 60 mg/kg/day,−100^b %
same,Regressions Complete,LOX-IMVI [14]; 60 mg/kg/day,4/6
same,Regressions Partial,LOX-IMVI [14]; 60 mg/kg/day,016
same,Growth delay: %(T − C)/C,LOX-IMVI [14]; 90 mg/kg/day,181%
same,Optimal % T/C,LOX-IMVI [14]; 90 mg/kg/day,−54%
same,Regressions Complete,LOX-IMVI [14]; 90 mg/kg/day,2/10
same,Regressions Partial,LOX-IMVI [14]; 90 mg/kg/day,3/10
same,Growth delay: %(T − C)/C,SK-MEL-2 [15],118%
same,Optimal % T/C,SK-MEL-2 [15],10 (32) %
same,Regressions Complete,SK-MEL-2 [15],2/6
same,Regressions Partial,SK-MEL-2 [15],0/6
same,day on which the optimal (minimum) T/C was attained,SK-MEL-2 [15],10 (32)
O=C(NOCC1CC1)c1ccc(F)c(F)c1Nc1ccc(I)cc1Cl [PD184352],% Apoptosis,M14-MEL; 1 μM,24.5%
same,% Apoptosis,M14-MEL; 5 μM,37.3%
same,% Apoptosis,M14-MEL; 10 μM,48.8%
same,% Apoptosis,M14-MEL; 20 μM,71.0%
same,potency relative to PD98059,"M14-MEL; apoptosis in M14-MEL, 72 hours","more potent, possibly by several fold"
same,selectivity melanoma cells vs normal human melanocytes,"M14-MEL; apoptosis, 72 hours",selectively cytotoxic to human melanoma cells
same,% Apoptosis,[4]; 2 μM,0.3%
same,activation of MAPK (ERK1/2),MAPK (ERK1/2),completely blocked

# From patent US7612035B2, “Inhibition of mitogen-activated protein kinase (MAPK) pathway: a selective therapeutic strategy against melanoma” (Van Andel Research Institute, priority 2000, dated 2009)
